Source: patent US7326718B2, “8-Substituted imidazopyridines” (Altana Pharma AG, priority 2002, dated 2008)

Key:
[1] = tested on: pentagastrin-stimulated acid secretion of the perfused rat stomach; assay: Secretion-inhibiting action on the perfused rat stomach (pentagastrin-stimulated acid secretion, intraduodenal administration in vivo); settings: dose 1 μmol/kg i.d., anaesthetized female CD rat, pentagastrin-stimulated (1 μg/kg i.v. infusion)
Excerpt: Testing of the Secretion-Inhibiting Action on the Perfused Rat Stomach
In Table A which follows, the influence of the compounds according to the invention on the pentagastrin-stimulated acid secretion of the perfused rat stomach after intraduodenal administration in vivo is shown.
The abdomen of anaesthetized rats (CD rat, female, 200-250 g; 1.5 g/kg i.m. urethane) was opened after tracheotomy by a median upper abdominal incision and a PVC catheter was fixed transorally in the oesophagus and another via the pylorus such that the ends of the tubes just projected into the gastric lumen. The catheter leading from the pylorus led outward into the right abdominal wall through a side opening.
After thorough rinsing (about 50-100 ml), warm (37° C.) physiological NaCl solution was continuously passed through the stomach (0.5 ml/min, ph 6.8-6.9; Braun-Unita I). The pH (pH meter 632, glass electrode EA 147; φ=5 mm, Metrohm) and, by titration with a freshly prepared 0.01N NaOH solution to ph 7 (Dosimat 665 Metrohm), the secreted HCl were determined in the effluent in each case collected at an interval of 15 minutes.
The gastric secretion was stimulated by continuous infusion of 1 μg/kg (=1.65 ml/h) of i.v. pentagastrin (left femoral vein) about 30 min after the end of the operation (i.e. after determination of 2 preliminary fractions). The substances to be tested were administered intraduodenally in a 2.5 ml/kg liquid volume 60 min after the start of the continuous pentagastrin infusion.
The body temperature of the animals was kept at a constant 37.8-38° C. by infrared irradiation and heat pads (automatic, stepless control by means of a rectal temperature sensor).

Structure (SMILES) | Inhibition of acid secretion (%) [1] [%] | melting point [°C]
Cc1nc2c(O[C@@H]3c4ccccc4CC[C@H]3O)cc(C(=O)N(C)C)cn2c1C.Cl (relative stereo) [Example 15, 6-(N,N-Dimethylamino-carbonyl)-2,3-dimethyl-8-(trans-1,2,3,4-tetrahydro-2-hydroxy-1-naphthalenyloxy)-imidazo[1,2-a]pyridine hydrochloride] | >30 | 129
COc1cccc2c1[C@@H](Oc1cc(C(=O)N(C)C)cn3c(C)c(C)nc13)[C@H](O)C2 (relative stereo) [Example 16, 8-(trans-2,3-Dihydro-2-hydroxy-7-methoxy-1-indenyloxy)-6-(N,N-dimethylamino-carbonyl)-2,3-dimethyl-imidazo[1,2-a]pyridine] | >30 | –
Cc1cccc2c1[C@@H](Oc1cc(C(=O)N(C)C)cn3c(C)c(C)nc13)[C@H](O)C2 [Example 17] | >30 | –
Cc1nc2c(N[C@@H]3c4ccccc4C[C@H]3O)cc(C(=O)O)cn2c1C (relative stereo) [Example 2, 8-(trans-2,3-Dihydro-2-hydroxy-1-indenylamino)-2,3-dimethyl-imidazo[1,2-a]pyridine-6-carboxylic acid] | – | 246 to 249
COC(=O)c1cc(N[C@@H]2c3ccccc3C[C@H]2O)c2nc(C)c(C)n2c1 (relative stereo) [Example 1, Methyl 8-(trans-2,3-dihydro-2-hydroxy-1-indenylamino)-2,3-dimethyl-imidazo[1,2-a]pyridine-6-carboxylate] | – | 261 to 262
COCc1cc(O[C@@H]2c3ccccc3C[C@H]2O)c2nc(C)c(C)n2c1 (relative stereo) [Example 11, 8-(trans-2,3-Dihydro-2-hydroxy-1-indenyloxy)-6-methoxymethyl-2,3-dimethyl-imidazo[1,2-a]pyridine] | >30 | 142 to 143
Cc1nc2c(O[C@@H]3c4ccccc4C[C@H]3O)cc(C(=O)N(C)C)cn2c1C (relative stereo) [Example 9, 8-(trans-2,3-Dihydro-2-hydroxy-1-indenyloxy)-6-(N,N-dimethylamino-carbonyl)-2,3-dimethyl-imidazo[1,2-a]pyridine] | >30 | –
Cc1nc2c(O[C@@H]3c4ccccc4C[C@H]3O)cc(C(=O)O)cn2c1C (relative stereo) [Example 8, 8-(trans-2,3-Dihydro-2-hydroxy-1-indenyloxy)-2,3-dimethyl-imidazo[1,2-a]pyridine-6-carboxylic acid] | – | 229 to 231
Cc1nc2c(O[C@H]3c4ccccc4C[C@@H]3O)cc(C(=O)N(C)C)cn2c1C [Example 14, 8-[(1S,2S)-2,3-Dihydro-2-hydroxy-1-indenyloxy)-6-(N,N-dimethylamino-carbonyl)-2,3-dimethyl-imidazo[1,2-a]pyridine] | >30 | –
